Values quoted from earlier work in article PMC9898036, “VIP152 is a selective CDK9 inhibitor with pre-clinical in vitro and in vivo efficacy in chronic lymphocytic leukemia” (Leukemia, 2022).

Test system: CLL patients
Settings: cited from earlier work

CCc1cnn2c(NCc3ccc[n+]([O-])c3)cc(N3CCCC[C@H]3CCO)nc12 [dinaciclib]
patients having a partial response: 64%
